Columns and labels:
Stat5a = target: T1, Stat5a (Homo sapiens, UniProt P42229); experiment: Stat5a translocation to the nucleus in PC3 cells (immunofluorescence); assay type: cell-based; set-up: expressed in transfected cells; host or cells: PC-3 (human prostate cancer cell line); settings: 2 hours pretreatment, 10 nmol/L Prl 30 minutes
T1 sequence (P42229 1-794): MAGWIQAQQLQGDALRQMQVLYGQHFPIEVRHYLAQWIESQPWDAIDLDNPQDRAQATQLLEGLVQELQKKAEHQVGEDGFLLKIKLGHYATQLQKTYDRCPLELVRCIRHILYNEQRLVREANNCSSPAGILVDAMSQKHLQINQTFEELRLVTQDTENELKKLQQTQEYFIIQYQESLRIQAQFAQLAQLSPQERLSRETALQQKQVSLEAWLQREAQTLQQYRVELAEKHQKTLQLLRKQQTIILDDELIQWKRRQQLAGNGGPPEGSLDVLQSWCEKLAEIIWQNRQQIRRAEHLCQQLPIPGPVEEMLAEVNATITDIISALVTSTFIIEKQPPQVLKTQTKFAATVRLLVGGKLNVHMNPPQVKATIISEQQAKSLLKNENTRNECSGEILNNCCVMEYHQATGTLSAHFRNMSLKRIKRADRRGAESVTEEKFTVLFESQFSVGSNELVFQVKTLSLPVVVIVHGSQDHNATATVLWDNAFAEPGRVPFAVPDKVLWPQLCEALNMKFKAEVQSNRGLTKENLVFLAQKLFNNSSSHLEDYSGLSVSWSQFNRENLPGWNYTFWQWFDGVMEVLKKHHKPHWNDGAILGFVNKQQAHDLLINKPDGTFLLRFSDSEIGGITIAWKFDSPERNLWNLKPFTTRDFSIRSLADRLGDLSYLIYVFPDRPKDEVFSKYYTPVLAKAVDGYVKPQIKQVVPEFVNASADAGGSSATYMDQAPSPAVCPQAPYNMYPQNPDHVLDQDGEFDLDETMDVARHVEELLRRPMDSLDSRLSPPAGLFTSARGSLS
Experimental: PC3 cells were infected with Ade-Stat5a and Ade-PrlR at MOI 5 for each adenovirus. Cells were pretreated with N6BAP or vehicle (DMSO) for 2 hours and then stimulated with 10 nmol/L Prl for 30 minutes. Cells were fixed with 100% methanol for 15 min and subsequently permeabilized with 0.1% Triton X-100 in PBS (pH 7.4). After blocking with 2% bovine serum albumin in PBS, cells were incubated with an antibody specific for Stat5a or Stat5b at 4° C. for 2 hours. Cells were then washed with PBS and incubated with FITC-conjugated secondary antibody (Jackson ImmunoResearch) at room temperature for 1 hour. The images were taken by using an inverted fluorescence microscopy (Carl Zeiss). […] It should be noted the drug effect in this study was not due to cell apoptosis induction, as the treatment time was only 2 hours. Treatment of at least 48 hours is required for the compound to induce prostate cancer cell apoptosis.

cyclin D1 = experiment: Expression of Stat5 target gene cyclin D1 in CWR22Rv1 and LNCaP cells (immunoblot); assay type: cell-based, human; settings: 48 h or 25 μM over time
Experimental: Exponentially growing CWR22Rv1 and LNCaP cells were treated with N6BAP or the control compound C5 (Ctrl) for 48 h at concentrations indicated in FIG. 6 and whole cell lysates were immunoblotted with anti-cyclinD1 mAb. Exponentially growing CWR22Rv1 and LNCaP cells were treated with N6BAP or control compound C5 (Ctrl) at 25 μM for the periods of time indicated in FIG. 6, and whole cell lysates were immunoblotted with anti-cyclinD1 mAb or anti-Bcl-X1 pAb. Cell pellets were solubilized in lysis buffer [10 mM Tris-HCl (pH 7.6), 5 mM EDTA, 50 mM sodium chloride, 30 mM sodium pyrophosphate, 50 mM sodium fluoride, 1 mM sodium orthovanadate, 1% Triton X-100, 1 mM phenylmethylsulfonyl fluoride, 5 μg/ml aprotinin, 1 μg/ml pepstatin A, and […]], rotated end-over-end at 4° C. for 60 min, and insoluble material was pelleted at 12,000×g for 30 min at 4° C. The protein concentrations of clarified cell lysates were determined by simplified Bradford method (Bio-Rad Laboratories, Hercules, Calif.). The following primary antibodies were used for Western blotting, at the following concentrations: anti-β-actin pAb (1:4,000; Sigma), anti-cyclin D1 mAb (1:1000, BD Biosciences) and Bcl-xL pAb (1:1000, Cell Signaling, Danvers, Mass.).

Stat5a/b = experiment: Clinical prostate cancers ex vivo in explant organ cultures: nuclear Stat5a/b immunohistochemistry; assay type: cell-based, human; settings: 7 days, N6BAP 5, 10, 25, 50 and 100 μM; C5 100 m
Experimental: The specimens comprised de-identified excess tissue obtained after the completion of pathology diagnosis. A zero-sample prior to organ culture was formalin-fixed for each individual prostate cancer for the analysis of the nuclear Stat5a/b status. The prostate organ cultures were performed as described earlier (Ahonen et al., Endocrinology (2002), 143:228-238). Briefly, prostate cancer tissue was cut into approximately 1 mm^3 pieces in a plain culture medium and transferred onto lens papers lying on stainless steel grids in petri dishes. The medium was phenol-free medium 199 with Earle's salts (Sigma) containing dialyzed 5% fetal calf serum, G-penicillin (100 IU/ml), streptomycin sulfate ([…]), and glutamine (100 μg/ml). […] Tissue explants were cultured in a medium containing the N6BAP or control compound C5 at indicated concentrations (C5: […]; N6BAP: 5, 10, 25, 50 and 100 μM) 7 days, after which the explants were fixed in formalin and analyzed for Stat5a/b activation and viability of prostate cancer epithelial compartment. Viability of the epithelial cells in the prostate cancer explants at the end of the cultures were scored by counting the viable epithelial cells per explant.
Nuclear Stat5a/b indexes were determined by counting the Stat5-positive cells per 500 epithelial cells in the cultured explants in each treatment group.

CWR22Rv1 cells = experiment: Nucleosomal DNA fragmentation (nucleosomal ELISA) in CWR22Rv1 cells; assay type: cell-based, human; settings: 24 μM N6BAP

## O=P(O)(O)OC[C@H]1O[C@@H](n2cnc3c(NCc4ccccc4)ncnc32)[C@H](O)[C@@H]1O [N6BAP, N^6-benzyladenosine-5′-monophosphate]
Stat5a
  translocation of Stat5a to the nucleus: blocks translocation of Stat5a to the nucleus
Cyclin D1
  expression of cyclin D1: down-regulates expression
Stat5a/b
  nuclear Stat5 expression in explant organ cultures: reduced the levels of nuclear Stat5 expression
CWR22Rv1 cells
  DNA fragmentation (apoptosis): N6BAP-induced DNA fragmentation
